In patent publication US12503453B2, “USP7 inhibition” (Dana-Farber Cancer Institute, Inc., priority 2018, dated 2025):

Tests used:
[1] = test system: TC32 cells expressing sgTP53; test: Cell proliferation of TC32 cells with TP53 knockout; type: cell-based; conditions: 3 days
Experimental: (§1) Cells were plated in 384-well culture-treated plates and allowed to settle overnight. After drug treatment and appropriate incubation time, cell viability was assessed using the CellTiter-Glo Luminescent Cell Viability Assay (Promega). Luminescence was read on a Fluostar Omega Reader (BMG Labtech).
Lentivirus was produced by transfecting HEK-293T cells with the pLentiV2 vector (Addgene plasmid #52961) and the packaging plasmids pCMV8.9 and pCMV-VSVG according to the FuGENE 6 (Roche) protocol. For lentiviral transduction, Ewing sarcoma cells were incubated with 2 mL of virus and 8 μg/mL of polybrene (Sigma-Aldrich). Cells were selected in puromycin (Sigma-Aldrich) 48 hours after infection for single knockout experiments.
sgRNAs were designed using the Broad Institute's sgRNA designer tool. The following sequences were used as control or to target the respective genes: […]

TC138 cells = test: Cell proliferation (CellTiter-Glo), TC138; type: cell-based; conditions: TP53 wild-type, 3 days
Experimental: as §1

full length USP7 = full length USP7 (Homo sapiens (Human), UniProt Q93009); test: Ub-AMC enzymatic assay with full-length USP7; type: biochemical; conditions: full-length USP7, Ub-AMC
Experimental: Both constructs were overexpressed in E. coli BL21 (DE3). Cells were grown at 37° C. to an OD of 0.9, cooled to 16° C., induced with 500 μM isopropyl-1-thio-D-galactopyranoside (IPTG), incubated overnight at 16° C., collected by centrifugation, and stored at −80° C. Cell pellets were sonicated in lysis buffer (25 mM Tris pH 8, 1 M NaCl, and 10 mM BME) supplemented with 10 μg/ml phenylmethanesulfonylfluoride (PMSF) and the resulting lysate was centrifuged at 30,000×g for 40 min. Ni-NTA beads (Qiagen) were mixed with lysate supernatant for 2 hours, and washed with lysis buffer supplemented with 25 mM imidazole. The bound protein was eluted with lysis buffer supplemented with 300 mM imidazole. The sample was then concentrated to 1 ml (30 kDa concentrator; Amicon Ultra, Millipore), and run on a Superdex 200 (GE healthcare) in buffer containing 25 mM HEPES pH 7.5, 200 mM NaCl, and 1 mM DTT. Fractions were pooled, concentrated and frozen at −80° C.
Full length USP7 was tested for its activity in Ubiquitin-AMC assay in presence or absence of inhibitors. USP7 (5 nM) was pre-incubated for 6 hours at room temperature with different concentrations of inhibitors or DMSO as a control in 50 mM HEPES pH 7.5, 0.5 mM EDTA, 11 μM ovalbumin, and 5 mM DTT. Ubiquitin-AMC (Boston Biochem) was then added to a final concentration of 500 nM. The initial rate of the reaction was measured by collecting fluorescence data at one minute intervals over 30-minute period using a Clariostar fluorescence plate reader at excitation and emission wavelength of 345 and 445 nm respectively. The calculated initial rate values were plotted against inhibitor concentrations to determine IC50s. All the experimental data were plotted using Prism GraphPad. All assays for each compound were performed at least twice for each compound.

[2] = test system: Ewing sarcoma cell lines, TP53 WT and mutant; test: Cell proliferation (CellTiter-Glo), panel of Ewing sarcoma cell lines; type: cell-based; conditions: WT and TP53-KO Ewing Sarcoma cells
Experimental: as §1

[3] = test system: 41 purified recombinant DUBs; test: In vitro DUB profiling, panel of 41 recombinant DUBs (Ub-Rho); type: biochemical; conditions: 1 μM, 15 minutes pre-incubation
Experimental: Compounds were screened using the Ubiquigent Drug Profiler SPT system. Each of 41 purified DUBs was incubated with compound for 15 minutes, then ubiquitin rhodamine 110 (Ub-Rho) was added and percent inhibition determined based on fluorescence relative to a DMSO control.

Sequence of full length USP7 (Q93009 whole entry): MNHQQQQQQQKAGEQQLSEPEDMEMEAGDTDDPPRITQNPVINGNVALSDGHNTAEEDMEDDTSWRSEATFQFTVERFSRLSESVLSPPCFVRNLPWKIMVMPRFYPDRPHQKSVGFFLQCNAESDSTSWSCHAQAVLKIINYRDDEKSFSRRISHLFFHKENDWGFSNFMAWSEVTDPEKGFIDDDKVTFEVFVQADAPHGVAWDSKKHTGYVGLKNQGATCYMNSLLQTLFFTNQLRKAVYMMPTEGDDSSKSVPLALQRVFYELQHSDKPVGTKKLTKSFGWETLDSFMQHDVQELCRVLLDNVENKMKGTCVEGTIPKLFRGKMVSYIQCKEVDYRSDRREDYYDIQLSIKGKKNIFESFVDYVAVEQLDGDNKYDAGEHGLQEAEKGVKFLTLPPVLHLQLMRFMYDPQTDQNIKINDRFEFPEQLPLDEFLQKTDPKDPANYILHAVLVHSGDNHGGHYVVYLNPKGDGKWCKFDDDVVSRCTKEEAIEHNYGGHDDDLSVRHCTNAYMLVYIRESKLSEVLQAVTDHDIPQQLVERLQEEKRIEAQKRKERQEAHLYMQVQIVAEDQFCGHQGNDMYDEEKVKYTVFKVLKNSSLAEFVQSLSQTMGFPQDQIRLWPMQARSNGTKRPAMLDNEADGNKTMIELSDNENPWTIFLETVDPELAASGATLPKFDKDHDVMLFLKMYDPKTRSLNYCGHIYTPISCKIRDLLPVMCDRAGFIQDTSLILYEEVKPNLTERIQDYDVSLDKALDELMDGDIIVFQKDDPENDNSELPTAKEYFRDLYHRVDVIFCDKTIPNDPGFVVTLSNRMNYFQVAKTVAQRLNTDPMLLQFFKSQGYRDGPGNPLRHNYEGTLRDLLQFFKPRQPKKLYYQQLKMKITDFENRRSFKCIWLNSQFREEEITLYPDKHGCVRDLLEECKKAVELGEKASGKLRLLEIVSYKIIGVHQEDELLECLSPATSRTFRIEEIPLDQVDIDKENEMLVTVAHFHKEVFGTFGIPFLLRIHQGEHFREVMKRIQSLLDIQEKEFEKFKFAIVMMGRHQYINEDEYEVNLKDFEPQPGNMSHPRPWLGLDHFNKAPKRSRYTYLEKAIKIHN

IC50 against USP7 (range in words) (full length USP7): subnanomolar range
Structure (SMILES): CN1CCN(CCC(=O)Nc2ccc3c(=O)n(CC4(O)CCN(C(=O)[C@@H](CCCNC(=O)c5ccc6c(Cl)c7c(nc6c5)CCCC7)Cc5ccccc5)CC4)cnc3c2)CC1 [compound 6, (S)—N-(4-benzyl-5-(4-hydroxy-4-((7-(3-(4-methylpiperazin-1-yl)propanamido)-4-oxoquinazolin-3(4H)-yl)methyl)piperidin-1-yl)-5-oxopentyl)-9-chloro-5,6,7,8-tetrahydroacridine-3-carboxamide]
cytotoxic effect after TP53 knockout [1]: rescued by TP53 knockout
growth inhibition (TC138 cells): potently inhibited
TP53 dependence of cell killing [2]: highly TP53-dependent cell killing
activity against other DUBs of the panel [3]: did not exhibit significant activity against any other DUBs
inhibition of USP7 enzymatic activity [3]: completely inhibited USP7 enzymatic activity
